# According to patent publication US20220041691A1, “METHODS FOR DIAGNOSING OR TREATING POST-TRAUMATIC STRESS DISORDER, AND COMPOSITIONS THEREFOR” (Centre for Addiction and Mental Health, priority 2018, published 2022):
# Entries after “also recorded” stand apart in the source; their conditions may differ.
# How the values were obtained:
# Type in all cases: in vivo, mouse
# nuclear GR = assay: Nuclear protein isolation, nuclear GR in brain of fear-conditioned mice; conditions: 3 nmol/g i.p, vs TAT alone or saline, p<0.05, n=4
# Experimental: Nuclear protein isolation assays were performed in acute mouse brain slices or mouse brain tissue using the Nuclear Protein Extraction Kit (Bio Basic Inc., Amherst, N.Y.). Briefly, after treatment with TAT or TAT-GRpep, mouse brain slices were harvested for nuclear protein extraction according to the manufacturer's instructions.
# fear-conditioned mice [1] = assay: Cued fear conditioning, systemic (i.p.) peptide delivery
# Experimental: Next, testing was performed to determine whether TAT-GRpep can block the emergence of PTSD-like fear-related behaviours when administrated systemically. Animals underwent five rounds of CS-US pairings followed by 5 days of extinction training before the expression of fear in response to the learned cue was assessed (FIG. 4A). Mice were injected with either TAT-GRpep or TAT intraperitoneally (3 nmol/g, i.p.) one hour before the test.
# Furthermore, testing was performed to determine whether disrupting the GR-FKBP51 complex reduced consolidation of cued fear memory. Thus, TAT or TAT-GRpep was administered two hours after the end of fear conditioning training (FIG. 4C), before five consecutive daily extinction sessions of cue exposure without shock. […] This may therefore indicate a potential approach to both preventing and treating PTSD-like behaviour in the aftermath of trauma, for example.
# Animals were first given a five-minute habituation to the apparatus (Habitest, Colbourne Instruments). Then, animals were exposed to 30 seconds of cue exposure (an in-house white light), which co-terminated with one second of foot-shock (0.5 mA). The cue exposure and foot-shock were repeated five times, intermitted by 5-minute inter-trial intervals. Following the conditioning, animals were subjected to 2-5 days of extinction before the assessment of their cued fear memory, which consisted of 15 rounds of 30-second cue exposure, with 30-second inter-trial intervals (adapted from Andero et al.).^48
# The expression of fear (in a different context from training) was assessed 24 hours after the last extinction training. The assessment consisted of a three-minute period of habituation (absence of CS) and a sequent three-minute trial of conditioned cues. The duration of freezing behaviors was recorded by a blinded experimenter. Peptide treatment was either administered 2 hours after the conditioning or 30 minutes before the behavioral assessment.
# fear-conditioned mice [2] = assay: Cued fear conditioning, peptide injected into right amygdala or motor cortex
# Experimental: Next, testing was performed to determine whether disrupting the GR-FKBP51 complex could reduce freezing behaviors in fear-conditioned mice as a model for PTSD-related symptoms. […] The animals were then subjected to two days of extinction, where the same cues were presented without foot shock, before cued fear memory was assessed. One hour before the fear memory assessment, animals were injected with either control peptide (TAT) or treatment peptide (TAT-GRpep) into the right amygdala. […] However, two-way ANOVA confirmed a significant effect of the cue (F1, 46=10.387, p<0.01) and peptide (F1,46=7.708, p<0.01). […] Both treatment groups reacted similarly to the cue (p=NS; FIG. 3E).
# Some of the animals were later subjected to implantation of cannula into either amygdala (AP−1.5, LM−3.0, DV−4.8) or motor cortex (AP+2.1, LM−2.0, DV−1.0). Following surgeries, animals were allowed one week to recover before subjected to any experimental procedures.
# Animals were first given a five-minute habituation to the apparatus (Habitest, Colbourne Instruments). Then, animals were exposed to 30 seconds of cue exposure (an in-house white light), which co-terminated with one second of foot-shock (0.5 mA). […]
# The expression of fear (in a different context from training) was assessed 24 hours after the last extinction training. […] The duration of freezing behaviors was recorded by a blinded experimenter. […]
# [3] = system: GR phosphorylation at S211; assay: Western blot of GR phosphorylation at S211 in brain lysate of fear-conditioned mice; conditions: brain lysate of fear-conditioned mice injected with TAT or TAT-GRpep; p<0.05, n=3
# From the text: To further investigate these findings, surface plasmon resonance (SPR) was used to estimate association and dissociation rates between GR and FKBP51. […] Thus, GR S211 phosphorylation seems to reduce GR affinity for FKBP51. Conversely, disruption of the GR-FKBP51 complex with TAT-GRpep could increase GR S211 phosphorylation, which is what was observed when comparing fear-conditioned mice treated with TAT-GRpep vs. TAT control or no treatment (FIG. 5 I-J).
# Co-immunoprecipitation and Western blot analyses were performed as previously described.^24, 25, 26 For co-immunoprecipitation, 500˜1000 μg solubilized protein was extracted from whole mouse brain and incubated with primary antibody or control IgG (2˜4 μg) for 4 hrs at 4° C., followed by the addition of 25 μl protein A/G plus agarose (Santa Cruz Biotechnology) for 12 hrs. Pellets were washed, boiled for 5 min in SDS sample buffer and subjected to SDS-PAGE. 50˜100 μg of total protein extract was used as control in each experiment. After transfer of proteins into nitrocellulose, membranes were Western blotted with the primary antibodies. The intensity of protein level was quantified by densitometry (software: ImageLab, Bio-Rad). […]
sequence,measurement,setting,value
GRKKRRQRRRPQSPWRSDLLIDENCLL (Amino Acid Sequence of TAT-GRpep Peptide),nuclear GR level / GR nuclear localization,nuclear GR,higher levels of nuclear GR; also recorded: increased
same,duration of freezing with the CS,"fear-conditioned mice [1]; 3 nmol/g i.p. one hour before the test, after 5 days of extinction training, three-minute cue trial, p<0.05",34.1 ± 6.7 s
same,freezing behavior during habituation period without CS,"fear-conditioned mice [1]; 3 nmol/g i.p. one hour before the test, TAT-GRpep vs control group, p=NS",no difference in freezing behavior
same,cued freezing behaviours (FIG. 4D),"fear-conditioned mice [1]; peptide administered after fear conditioning, before extinction sessions, p<0.05",reduced cued freezing behaviours
same,duration of freezing with the CS (consolidation of cued fear memory),"fear-conditioned mice [1]; peptide administered two hours after end of fear conditioning, tested 24 hours after last of five daily extinction sessions, p<0.05",55.9 ± 3.3 s
same,"freezing behavior, cued fear memory assessment","fear-conditioned mice [2]; injected into right amygdala one hour before assessment, after two days of extinction, vs control peptide, p<0.01",significantly lower level of freezing behavior; also recorded: significantly less freezing than controls
same,"freezing behavior, cued fear memory assessment","fear-conditioned mice [2]; peptide infused into motor cortex instead of amygdala, p=NS",did not affect freezing
same,GR phosphorylation at S211,[3],able to block the decrease of GR phosphorylation at S211; also recorded: blocked the decrease in GR S211 phosphorylation
